Experimental data from patent US20230310634A1, “ANTI-HUMAN VISTA ANTIBODIES AND USE THEREOF” (IMMUNEXT, INC., priority 2020, published 2023).
Entries after “also recorded” stand apart in the source; their conditions may differ.

Columns and labels:
[1] = test system: peritoneal resident macrophages; assay: In vivo treatment / ex vivo activation of peritoneal resident macrophages (TNFα, IL-6); design: species or system mice; details: Experiment 9, 0.2 mg/Kg of GC payload, day −7, supernatants at 24 h
[2] = test system: LPS-induced cytokine release; assay: LPS-induced systemic inflammation, plasma cytokines post LPS; design: species or system mice; details: mouse, in vivo
Description: In order to evaluate the ADC potential efficacy in auto-immune diseases, we used the short-term model of LPS-induced systemic inflammation. Intraperitoneal (i.p.) injection of lipopolysaccharide (LPS) is widely used as a model for acute immune response—both local and systemic—in mice.
Blood was collected at 2 or 4 h post LPS i.p. injection, and plasma isolated for cytokine analyses.
Mice were dosed at 0.5 mg/Kg.
For ADC-INVIVO-30 and 35, the Immune Monitoring Lab (IML, Shared Resources at Dartmouth-Hitchcock Norris Cotton Cancer Center) performed the analyses.
ELISAs were conducted following the manufacturer's included protocol.
Cytokine data are censored when below a […] threshold for IL-12p40 and/or […] threshold for TNF-α as it indicates a failed LPS injection.

Row | SMILES | long term potency in controlling PRM cytokine responses (TNFα, IL-6) [1] | potency of conjugated linker/payload in the short term LPS activation model (conclusions) [2]
1 | C[C@]12C=CC(=O)C=C1[C@@H](F)C[C@H]1[C@@H]3C[C@H]4O[C@@H](c5ccc(CC67CC(NC(=O)[C@H](CCC(=O)O)NC(=O)CNC(=O)CBr)(C6)C7)cc5)O[C@@]4(C(=O)CO)[C@@]3(C)C[C@H](O)[C@@]12F [INX S, (S)-4-(2-(2-bromoacetamido)acetamido)-5-((3-(4-((2S,6aS,6bR,7S,8aS,8bS, 10R,11 aR,12aS,12bS)-2,6b-difluoro-7-hydroxy-8b-(2-hydroxyacetyl)-6a,8a-dimethyl-4-oxo-2,4,6a,6b,7,8,8a,8b,11a,12,12a,12b-dodecahydro-1H-naphtho[2′,1′:4,5]indeno[1,2-d][1,3]dioxol-10-yl)benzyl)bicyclo [1.1.1]pentan-1-yl)amino)-5-oxopentanoic acid] | remarkable long term potency; also recorded: increased potency relative to INX P | 
2 | C[C@H](NC(=O)CBr)C(=O)N[C@@H](C)C(=O)NC12CC(Cc3ccc([C@@H]4O[C@@H]5C[C@H]6[C@@H]7CCC8=CC(=O)C=C[C@]8(C)[C@H]7[C@@H](O)C[C@]6(C)[C@]5(C(=O)CO)O4)cc3)(C1)C2 [INX R, (S)-2-(2-bromoacetamido)-N—((S)-1-((3-(4-((6aR,6bS,7S,8aS,8bS,10R,11aR, 12aS,12bS)-7-hydroxy-8b-(2-hydroxyacetyl)-6a,8a-dimethyl-4-oxo-2,4,6a,6b,7,8,8a,8b,11a,12,12a,12b-dodecahydro-1H-naphtho[2′,1′:4,5]indeno[1,2-d][1,3]dioxol-10-yl)benzyl)bicyclo [1.1.1]pentan-1-yl)amino)-1-oxopropan-2-yl)propanamide] |  | efficacious
3 | C[C@]12C=CC(=O)C=C1CC[C@@H]1[C@@H]2[C@@H](O)C[C@@]2(C)[C@H]1C[C@H]1O[C@@H](c3ccc(CC4CC5(C4)CC(NC(=O)[C@H](CCC(=O)O)NC(=O)CNC(=O)CBr)C5)cc3)O[C@]12C(=O)CO (stereo partly drawn) [INX V, (S)-4-(2-(2-bromoacetamido)acetamido)-5-((6-(4-((6aR,6bS,7S,8aS,8bS,10R,11 aR,12aS,12bS)-7-hydroxy-8b-(2-hydroxyacetyl)-6a,8a-dimethyl-4-oxo-2,4,6a,6b,7,8,8a,8b,11a,12,12a,12b-dodecahydro-1H-naphtho[2′,1′:4,5]indeno[1,2-d][1,3]dioxol-10-yl)benzyl)spiro[3.3]heptan-2-yl)amino)-5-oxopentanoic acid] | remarkable long term potency | 
4 | C[C@]12C=CC(=O)C=C1CC[C@@H]1[C@@H]2[C@@H](O)C[C@@]2(C)[C@H]1C[C@H]1O[C@@H](c3ccc(CC45CC(NC(=O)[C@H](CCC(=O)O)NC(=O)CNC(=O)CBr)(C4)C5)cc3)O[C@]12C(=O)CO [INX P, (S)-4-(2-(2-bromoacetamido)acetamido)-5-((3-(4-((6aR,6bS,7S,8aS,8bS,10R,11 aR,12aS,12bS)-7-hydroxy-8b-(2-hydroxyacetyl)-6a,8a-dimethyl-4-oxo-2,4,6a,6b,7,8,8a,8b,11a,12,12a,12b-dodecahydro-1H-naphtho[2′,1′:4,5]indeno[1,2-d][1,3]dioxol-10-yl)benzyl)bicycle[1.1.1]pentan-1-yl)amino)-5-oxopentanoic acid] |  | more potent
5 | C[C@]12C=CC(=O)C=C1CC[C@@H]1[C@@H]2[C@@H](O)C[C@@]2(C)[C@H]1C[C@H]1O[C@@H](c3ccc(CC45CC(NC(=O)[C@H](CCCCN)NC(=O)CNC(=O)CBr)(C4)C5)cc3)O[C@]12C(=O)CO [INX W, (S)-6-amino-2-(2-(2-bromoacetamido)acetamido)-N-(3-(4-((6aR,6bS,7S,8aS,8bS,10R,11aR,12aS,12bS)-7-hydroxy-8b-(2-hydroxyacetyl)-6a,8a-dimethyl-4-oxo-2,4,6a,6b,7,8,8a,8b,11a,12,12a,12b-dodecahydro-1H-naphtho[2′,1′:4,5]indeno[1,2-d][1,3]dioxol-10-yl)benzyl)bicycle [1.1.1]pentan-1-yl)hexanamide] | remarkable long term potency; also recorded: increased potency relative to INX P and INX R | efficacious
6 | C[C@]12C=CC(=O)C=C1CC[C@@H]1[C@@H]2[C@@H](O)C[C@@]2(C)[C@H]1C[C@H]1O[C@@H](C34CC(Cc5cccc(NC(=O)[C@H](CCC(=O)O)NC(=O)CNC(=O)CBr)c5)(C3)C4)O[C@]12C(=O)CO [INX O, (S)-4-(2-(2-bromoacetamido)acetamido)-5-((3-((3-((6aR,6bS,7S,8aS,8bS,10R,11aR,12aS,12bS)-7-hydroxy-8b-(2-hydroxyacetyl)-6a,8a-dimethyl-4-oxo-2,4,6a,6b,7,8,8a,8b,11a,12,12a,12b-dodecahydro-1H-naphtho[2′,1′:4,5]indeno[1,2-d][1,3]dioxol-10-yl)bicyclo[1.1.1]pentan-1-yl)methyl)phenyl)amino)-5-oxopentanoic acid] | little and non-significant impact; also recorded: very limited potency | reduced potency
7 | CC12C=CC(=O)C=C1CCC1C2C(O)CC2(C)C1CC1OC(c3ccc(Cc4cnc(NC(=O)C(CCC(=O)O)NC(=O)CNC(=O)CBr)s4)cc3)OC12C(=O)CO [INX N, (S)-4-(2-(2-bromoacetamido)acetamido)-5-((5-(4-((6aR,6bS,7S,8aS,8bS,10R,11aR,12aS,12bS)-7-hydroxy-8b-(2-hydroxyacetyl)-6a,8a-dimethyl-4-oxo-2,4,6a,6b,7,8,8a,8b,11a,12,12a,12b-dodecahydro-1H-naphtho[2′,1′:4,5]indeno[1,2-d][1,3]dioxol-10-yl)benzyl)thiazol-2-yl)amino)-5-oxopentanoic acid] |  | no potency
